Measurements from ChEMBL document CHEMBL1201862, “PubChem BioAssay data set” (2004).
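In this assay, cells in 96-well plates receive the compound at five concentrations for 48 hours. Endpoints are linearly interpolated between the surrounding concentrations. The concentration for 50% growth inhibition is given as GI50.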 Calls of active or inactive are those of the source. Cut-off read from the data, not from the text of the source: active = GI50 up to about 1.1 µM and inactive = higher.

Tests used:
Experiment in all cases: NCI tumour cell line growth inhibition, 48 h
NCI-H460 = test system: NCI-H460
ACHN = test system: ACHN
U-251 = test system: U-251
Malme-3M = test system: Malme-3M
A549 = test system: A549
PC-3 = test system: PC-3
SR = test system: SR
COLO 205 = test system: COLO 205
HT-29 = test system: HT-29
MDA-MB-231 = test system: MDA-MB-231
MCF7 = test system: MCF7
SW-620 = test system: SW-620
SF-539 = test system: SF-539
UO-31 = test system: UO-31
LOX IMVI = test system: LOX IMVI
HCC 2998 = test system: HCC 2998
OVCAR-3 = test system: OVCAR-3
CCRF-CEM = test system: CCRF-CEM
RXF 393 = test system: RXF 393
SK-MEL-5 = test system: SK-MEL-5

Compound	GI50 (NCI-H460)	GI50 (ACHN)	GI50 (U-251)	GI50 (Malme-3M)	GI50 (A549)	GI50 (PC-3)	GI50 (SR)	GI50 (COLO 205)	GI50 (HT-29)	GI50 (MDA-MB-231)	GI50 (MCF7)	GI50 (SW-620)	GI50 (SF-539)	GI50 (UO-31)	GI50 (LOX IMVI)	GI50 (HCC 2998)	GI50 (OVCAR-3)	GI50 (CCRF-CEM)	GI50 (RXF 393)	GI50 (SK-MEL-5)
CC(=O)Oc1ccc(-c2cc3ccccc3oc2=O)cc1	> 100 µM (inactive)	> 100 µM (inactive)	> 100 µM (inactive)	> 100 µM (inactive)	> 100 µM (inactive)	> 100 µM (inactive)	56.9 µM (inactive)	> 100 µM (inactive)	> 100 µM (inactive)	> 100 µM (inactive)	> 100 µM (inactive)	> 100 µM (inactive)	> 100 µM (inactive)	> 100 µM (inactive)	81.3 µM (inactive)	> 100 µM (inactive)	6.27 µM (inactive)	> 100 µM (inactive)		
c1ccc(CN[C@]23C4C5CC6C7C5C2C7[C@@](NCc2ccccc2)(C64)N3Cc2ccccc2)cc1 (some centres undefined)	> 100 µM (inactive)	> 100 µM (inactive)	> 100 µM (inactive)	> 100 µM (inactive)	> 100 µM (inactive)	> 100 µM (inactive)	3.94 µM (inactive)	> 100 µM (inactive)	> 100 µM (inactive)	> 100 µM (inactive)	> 100 µM (inactive)	> 100 µM (inactive)	> 100 µM (inactive)	> 100 µM (inactive)	> 100 µM (inactive)		> 100 µM (inactive)	> 100 µM (inactive)	> 100 µM (inactive)	> 100 µM (inactive)
O=C(O)COc1cc(-c2ccccc2)nc2cc(F)ccc12	> 100 µM (inactive)	> 100 µM (inactive)	> 100 µM (inactive)	> 100 µM (inactive)	> 100 µM (inactive)	> 100 µM (inactive)	> 100 µM (inactive)	> 100 µM (inactive)	> 100 µM (inactive)	> 100 µM (inactive)	> 100 µM (inactive)	> 100 µM (inactive)	> 100 µM (inactive)	64.7 µM (inactive)	> 100 µM (inactive)	60 µM (inactive)	> 100 µM (inactive)	> 100 µM (inactive)		> 100 µM (inactive)
Cc1c2ccccc2c(C)n2c1nc1cc3ccccc3cc12	1.05 µM (active)	0.783 µM (active)	1.65 µM (inactive)	1.28 µM (inactive)	1.86 µM (inactive)	1.27 µM (inactive)	0.721 µM (active)	1.34 µM (inactive)	0.647 µM (active)	1.36 µM (inactive)	0.321 µM (active)	1.56 µM (inactive)	1.34 µM (inactive)			1.78 µM (inactive)	0.968 µM (active)	1.57 µM (inactive)		1.94 µM (inactive)
Cc1ncc([N+](=O)[O-])n1CCNS(=O)(=O)CCCn1ncnc1[N+](=O)[O-]	> 100 µM (inactive)	> 100 µM (inactive)	> 100 µM (inactive)	> 100 µM (inactive)	> 100 µM (inactive)	> 100 µM (inactive)	> 100 µM (inactive)	> 100 µM (inactive)	> 100 µM (inactive)	> 100 µM (inactive)	> 100 µM (inactive)	> 100 µM (inactive)	> 100 µM (inactive)	> 100 µM (inactive)	> 100 µM (inactive)		> 100 µM (inactive)	> 100 µM (inactive)	> 100 µM (inactive)	> 100 µM (inactive)
CCCCCC(=O)OCC(=O)[C@H]1[C@H](C)C[C@H]2[C@@H]3C[C@H](F)C4=C/C(=N/OC(=O)c5cccc6c(=O)c7ccccc7[nH]c56)C=C[C@]4(C)[C@H]3[C@@H](O)C[C@@]21C		19.9 µM (inactive)	45.9 µM (inactive)	12.5 µM (inactive)	20.6 µM (inactive)	20.3 µM (inactive)	21.5 µM (inactive)	24.3 µM (inactive)	21.7 µM (inactive)	40.8 µM (inactive)	21.9 µM (inactive)	28.2 µM (inactive)	23.9 µM (inactive)	16 µM (inactive)	17.6 µM (inactive)	24.7 µM (inactive)	18.9 µM (inactive)	89.7 µM (inactive)		14.7 µM (inactive)
N#CCCN(CCC#N)c1ccc(C(=N/c2ccc(F)cc2)/N=N/c2ccccc2)cc1	60.1 µM (inactive)	> 100 µM (inactive)	50.9 µM (inactive)		37.8 µM (inactive)	> 100 µM (inactive)	33 µM (inactive)	> 100 µM (inactive)	> 100 µM (inactive)	82.6 µM (inactive)	> 100 µM (inactive)	> 100 µM (inactive)	> 100 µM (inactive)	> 100 µM (inactive)		> 100 µM (inactive)	95.3 µM (inactive)	< 0.01 µM (active)	2.67 µM (inactive)	83.6 µM (inactive)
CCOc1ccncc1[N+](=O)[O-]		> 100 µM (inactive)	> 100 µM (inactive)	> 100 µM (inactive)	> 100 µM (inactive)	> 100 µM (inactive)	> 100 µM (inactive)	> 10 µM (inactive)	> 100 µM (inactive)	> 100 µM (inactive)	> 100 µM (inactive)	> 100 µM (inactive)	> 100 µM (inactive)	> 100 µM (inactive)	> 100 µM (inactive)			> 100 µM (inactive)	> 100 µM (inactive)	> 100 µM (inactive)
O=CNc1ccc2c(c1)C(=O)c1ccccc1-2	46 µM (inactive)	> 100 µM (inactive)	65 µM (inactive)		> 100 µM (inactive)	68.2 µM (inactive)	37.2 µM (inactive)	67.5 µM (inactive)	49 µM (inactive)	> 100 µM (inactive)	20.8 µM (inactive)	49.3 µM (inactive)	75.5 µM (inactive)	47.3 µM (inactive)	48.8 µM (inactive)	> 100 µM (inactive)	> 100 µM (inactive)	41.2 µM (inactive)	65.2 µM (inactive)	> 100 µM (inactive)
Cc1nc2c(=O)n(C)ncc2[nH]1	> 100 µM (inactive)	> 100 µM (inactive)	> 100 µM (inactive)		> 100 µM (inactive)	> 100 µM (inactive)	> 100 µM (inactive)	> 100 µM (inactive)	> 100 µM (inactive)	> 100 µM (inactive)	> 100 µM (inactive)	> 100 µM (inactive)	> 100 µM (inactive)	> 100 µM (inactive)			> 100 µM (inactive)	> 100 µM (inactive)	> 100 µM (inactive)	> 100 µM (inactive)
Cc1nc2cc([N+](=O)[O-])ccc2c(NCCCN(C)C)c1C	3.18 µM (inactive)	20 µM (inactive)	18.8 µM (inactive)	6.22 µM (inactive)	6.21 µM (inactive)	4.71 µM (inactive)	4.45 µM (inactive)	2.56 µM (inactive)	2.76 µM (inactive)	3.34 µM (inactive)	2.94 µM (inactive)	5.3 µM (inactive)	13.7 µM (inactive)	14.7 µM (inactive)	11 µM (inactive)		6.31 µM (inactive)	28.9 µM (inactive)	11.1 µM (inactive)	10.1 µM (inactive)
CC1=NN(c2cccc(Cl)c2)C(=N/c2nc3ccccc3s2)/C1=C\c1ccc(Cl)cc1	17.2 µM (inactive)	24.3 µM (inactive)	14.8 µM (inactive)			16.4 µM (inactive)	24.7 µM (inactive)		17.9 µM (inactive)	20.7 µM (inactive)	22.2 µM (inactive)	19.9 µM (inactive)	18.4 µM (inactive)	23.9 µM (inactive)	18.2 µM (inactive)	16.4 µM (inactive)	21.7 µM (inactive)	26.1 µM (inactive)	20.3 µM (inactive)	15.8 µM (inactive)
CC(=O)OC1CC(O)CC2=CCC3C4CCC(C(C)(O)C(O)CC5COC(=O)C5C)C4(C)CCC3C21C (centres undefined)	> 25 µM (inactive)	> 25 µM (inactive)	> 25 µM (inactive)		> 25 µM (inactive)	> 25 µM (inactive)	13.6 µM (inactive)	> 25 µM (inactive)	> 25 µM (inactive)	13 µM (inactive)	> 25 µM (inactive)	> 25 µM (inactive)	> 25 µM (inactive)	8.59 µM (inactive)	> 25 µM (inactive)	> 25 µM (inactive)	> 25 µM (inactive)	16.5 µM (inactive)	> 25 µM (inactive)	7.66 µM (inactive)
C[C@@H]1CC[C@@]2(OC1)O[C@H]1[C@@H](O)[C@H]3[C@@H]4CC[C@H]5C[C@@H](O[C@@H]6O[C@H](CO)[C@H](O[C@@H]7O[C@H](CO)C(O)[C@H](O[C@@H]8OC[C@@H](O)[C@H](O)[C@H]8O)[C@H]7O[C@@H]7O[C@H](CO)[C@H](O)[C@H](O[C@@H]8O[C@H](CO)[C@@H](O)[C@H](O)[C@H]8O)[C@H]7O)[C@H](O)[C@H]6O)[C@H](O)C[C@]5(C)[C@H]4CC[C@]3(C)[C@H]1[C@@H]2C (some centres undefined) [DIGITONIN]	1.94 µM (inactive)	1.52 µM (inactive)	3.43 µM (inactive)		2.17 µM (inactive)	2.57 µM (inactive)	2.37 µM (inactive)	1.68 µM (inactive)	3.51 µM (inactive)	2.48 µM (inactive)	2.18 µM (inactive)	5.52 µM (inactive)	2.98 µM (inactive)	1.94 µM (inactive)	3.42 µM (inactive)	1.66 µM (inactive)	1.55 µM (inactive)	2.86 µM (inactive)		4.5 µM (inactive)
